According to PubChem BioAssay (NCI):
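Protocol summary: plate cells (96-well), add compound at 5 concentrations, incubate 48 h, interpolate endpoints linearly. The concentration for 50% growth inhibition is given as GI50. TGI: concentration producing complete growth inhibition.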

Key:
Assay in all cases: NCI anticancer screen, dose series, 48 h
IGROV1 ovarian = tested on: IGROV1 ovarian
HT29 colon = tested on: HT29 colon
NCI-H522 lung = tested on: NCI-H522 lung
SNB-75 CNS = tested on: SNB-75 CNS
UACC-62 melanoma = tested on: UACC-62 melanoma
HOP-92 NSCLC = tested on: HOP-92 NSCLC
NCI-H23 lung = tested on: NCI-H23 lung
SR leukemia = tested on: SR leukemia
786-0 renal = tested on: 786-0 renal
HOP-62 NSCLC = tested on: HOP-62 NSCLC
NCI/ADR-RES ovarian = tested on: NCI/ADR-RES ovarian
SN12C renal = tested on: SN12C renal
UO-31 renal = tested on: UO-31 renal
RPMI-8226 leukemia = tested on: RPMI-8226 leukemia
MDA-MB-435 = tested on: MDA-MB-435
SNB-19 CNS = tested on: SNB-19 CNS
TK-10 renal = tested on: TK-10 renal
K-562 leukemia = tested on: K-562 leukemia
SK-MEL-28 melanoma = tested on: SK-MEL-28 melanoma
OVCAR-4 ovarian = tested on: OVCAR-4 ovarian
NCI-H460 lung = tested on: NCI-H460 lung
HCT-15 colon = tested on: HCT-15 colon
A549 NSCLC = tested on: A549 NSCLC
KM12 colon = tested on: KM12 colon
NCI-H226 lung = tested on: NCI-H226 lung
CAKI-1 renal = tested on: CAKI-1 renal
BT-549 breast = tested on: BT-549 breast
HCC-2998 colon = tested on: HCC-2998 colon
OVCAR-8 ovarian = tested on: OVCAR-8 ovarian
M14 melanoma = tested on: M14 melanoma
MOLT-4 leukemia = tested on: MOLT-4 leukemia
SK-MEL-5 melanoma = tested on: SK-MEL-5 melanoma
ACHN renal = tested on: ACHN renal
HL-60(TB) leukemia = tested on: HL-60(TB) leukemia
LOX IMVI melanoma = tested on: LOX IMVI melanoma
SK-MEL-2 melanoma = tested on: SK-MEL-2 melanoma
SW-620 colon = tested on: SW-620 colon
MCF7 breast = tested on: MCF7 breast
RXF 393 renal = tested on: RXF 393 renal
SF-295 CNS = tested on: SF-295 CNS
HS 578T breast = tested on: HS 578T breast
PC-3 prostate = tested on: PC-3 prostate
SK-OV-3 ovarian = tested on: SK-OV-3 ovarian
U251 CNS = tested on: U251 CNS
COLO 205 colon = tested on: COLO 205 colon
OVCAR-3 ovarian = tested on: OVCAR-3 ovarian
OVCAR-5 ovarian = tested on: OVCAR-5 ovarian
SF-539 CNS = tested on: SF-539 CNS
MALME-3M melanoma = tested on: MALME-3M melanoma
SF-268 CNS = tested on: SF-268 CNS
A498 renal = tested on: A498 renal
MDA-MB-231 breast = tested on: MDA-MB-231 breast
CCRF-CEM leukemia = tested on: CCRF-CEM leukemia
HCT-116 colon = tested on: HCT-116 colon
UACC-257 melanoma = tested on: UACC-257 melanoma
EKVX NSCLC = tested on: EKVX NSCLC
T-47D breast = tested on: T-47D breast
DU-145 prostate = tested on: DU-145 prostate

SMILES: COc1ccc2nc3cc(Cl)ccc3c(NCCNCC(O)CO)c2c1 (stereo unspecified)
- GI50 (IGROV1 ovarian): 1.7 µM
- TGI (IGROV1 ovarian): 11.7 µM
- GI50 (HT29 colon): 0.726 µM
- TGI (HT29 colon): 6.91 µM
- GI50 (NCI-H522 lung): 0.984 µM
- TGI (NCI-H522 lung): 3.93 µM
- GI50 (SNB-75 CNS): 1.14 µM
- TGI (SNB-75 CNS): 11.1 µM
- GI50 (UACC-62 melanoma): 1.55 µM
- TGI (UACC-62 melanoma): 4.01 µM
- GI50 (HOP-92 NSCLC): 2.8 µM
- TGI (HOP-92 NSCLC): 7.18 µM
- GI50 (NCI-H23 lung): 1.62 µM
- TGI (NCI-H23 lung): 7.87 µM
- GI50 (SR leukemia): 0.597 µM
- TGI (SR leukemia): 10.8 µM
- GI50 (786-0 renal): 2.34 µM
- TGI (786-0 renal): 12.3 µM
- GI50 (HOP-62 NSCLC): 1.1 µM
- TGI (HOP-62 NSCLC): 4.74 µM
- GI50 (NCI/ADR-RES ovarian): 16.2 µM
- TGI (NCI/ADR-RES ovarian): 36.1 µM
- GI50 (SN12C renal): 0.946 µM
- TGI (SN12C renal): 9.94 µM
- GI50 (UO-31 renal): 3.62 µM
- TGI (UO-31 renal): 17.4 µM
- GI50 (RPMI-8226 leukemia): 2.3 µM
- TGI (RPMI-8226 leukemia): 6.38 µM
- GI50 (MDA-MB-435): 1.44 µM
- TGI (MDA-MB-435): 4.61 µM
- GI50 (SNB-19 CNS): 1.29 µM
- TGI (SNB-19 CNS): 12.6 µM
- GI50 (TK-10 renal): 3.11 µM
- TGI (TK-10 renal): 12.4 µM
- GI50 (K-562 leukemia): 0.807 µM
- TGI (K-562 leukemia): 10.2 µM
- GI50 (SK-MEL-28 melanoma): 2.19 µM
- TGI (SK-MEL-28 melanoma): 5.43 µM
- GI50 (OVCAR-4 ovarian): 1.35 µM
- TGI (OVCAR-4 ovarian): 9.15 µM
- GI50 (NCI-H460 lung): 0.631 µM
- TGI (NCI-H460 lung): 3.33 µM
- GI50 (HCT-15 colon): 5.36 µM
- TGI (HCT-15 colon): 20 µM
- GI50 (A549 NSCLC): 3.33 µM
- TGI (A549 NSCLC): 14.1 µM
- GI50 (KM12 colon): 1.66 µM
- TGI (KM12 colon): 10.7 µM
- GI50 (NCI-H226 lung): 2.18 µM
- TGI (NCI-H226 lung): 12.1 µM
- GI50 (CAKI-1 renal): 5.79 µM
- TGI (CAKI-1 renal): 20.3 µM
- GI50 (BT-549 breast): 6.69 µM
- TGI (BT-549 breast): 20.8 µM
- GI50 (HCC-2998 colon): 1.59 µM
- TGI (HCC-2998 colon): 6.55 µM
- GI50 (OVCAR-8 ovarian): 1.17 µM
- TGI (OVCAR-8 ovarian): 11.7 µM
- GI50 (M14 melanoma): 2.79 µM
- TGI (M14 melanoma): 10.9 µM
- GI50 (MOLT-4 leukemia): 0.408 µM
- TGI (MOLT-4 leukemia): 10.7 µM
- GI50 (SK-MEL-5 melanoma): 3.3 µM
- TGI (SK-MEL-5 melanoma): 11.1 µM
- GI50 (ACHN renal): 2.27 µM
- TGI (ACHN renal): 13.3 µM
- GI50 (HL-60(TB) leukemia): 2.83 µM
- TGI (HL-60(TB) leukemia): 7 µM
- GI50 (LOX IMVI melanoma): 0.5 µM
- TGI (LOX IMVI melanoma): 2.35 µM
- GI50 (SK-MEL-2 melanoma): 2.01 µM
- TGI (SK-MEL-2 melanoma): 6.97 µM
- GI50 (SW-620 colon): 0.61 µM
- TGI (SW-620 colon): 11.3 µM
- GI50 (MCF7 breast): 0.624 µM
- TGI (MCF7 breast): 10.1 µM
- GI50 (RXF 393 renal): 1.66 µM
- TGI (RXF 393 renal): 4.75 µM
- GI50 (SF-295 CNS): 2.33 µM
- TGI (SF-295 CNS): 12.3 µM
- GI50 (HS 578T breast): 3.75 µM
- TGI (HS 578T breast): 21.1 µM
- GI50 (PC-3 prostate): 2.34 µM
- TGI (PC-3 prostate): 10.7 µM
- GI50 (SK-OV-3 ovarian): 2.43 µM
- TGI (SK-OV-3 ovarian): 7.95 µM
- GI50 (U251 CNS): 1.55 µM
- TGI (U251 CNS): 10.8 µM
- GI50 (COLO 205 colon): 0.622 µM
- TGI (COLO 205 colon): 2.41 µM
- GI50 (OVCAR-3 ovarian): 1.81 µM
- TGI (OVCAR-3 ovarian): 8.55 µM
- GI50 (OVCAR-5 ovarian): 2.16 µM
- TGI (OVCAR-5 ovarian): 11.2 µM
- GI50 (SF-539 CNS): 1.23 µM
- TGI (SF-539 CNS): 9.14 µM
- GI50 (MALME-3M melanoma): 1.72 µM
- TGI (MALME-3M melanoma): 5.93 µM
- GI50 (SF-268 CNS): 1.03 µM
- TGI (SF-268 CNS): 13.1 µM
- GI50 (A498 renal): 0.245 µM
- TGI (A498 renal): 2.64 µM
- GI50 (MDA-MB-231 breast): 1.25 µM
- TGI (MDA-MB-231 breast): 5.83 µM
- GI50 (CCRF-CEM leukemia): 1.69 µM
- TGI (CCRF-CEM leukemia): 13.8 µM
- GI50 (HCT-116 colon): 0.391 µM
- TGI (HCT-116 colon): 2.83 µM
- GI50 (UACC-257 melanoma): 3.94 µM
- TGI (UACC-257 melanoma): 12.9 µM
- GI50 (EKVX NSCLC): 3.33 µM
- TGI (EKVX NSCLC): 13.1 µM
- GI50 (T-47D breast): 1.4 µM
- TGI (T-47D breast): 6.86 µM
- GI50 (DU-145 prostate): 1.88 µM
- TGI (DU-145 prostate): 11.4 µM
